{"source": "patent US20130164384A1", "about": "“METHODS OF TREATING BOWEL DISEASES BY ADMINISTERING A BOWEL CLEANSER AND AN ANTIBIOTIC” (Salix Pharmaceuticals, Ltd., priority 2008, published 2013)", "tested_on": "subjects diagnosed with dIBS", "assay": "Designed study of 14-day oral rifaximin 550 mg TID for adequate relief of dIBS symptoms over four weeks", "type": "in vivo, human", "settings": "oral 550 mg TID, 14-day course; 4 week study duration", "protocol": "A study is designed to evaluate the efficacy of a 14-day course of oral rifaximin at 550 mg TID in providing adequate relief from diarrhea-associated IBS (dIBS) symptoms over four weeks. The study populations includes subjects diagnosed with dIBS according to Rome III criteria utilizing the subtype for dIBS from the Rome II criteria. Subjects have a mean abdominal pain and discomfort score <4.5, a mean bloating score of <4.5 and a mean stool score (loose and watery)<3.5 for at least 7 of the 10 days during screening. A measure of efficacy is based on subjects' answers to the Weekly Subject Global Assessment (SGA) questions over the 4 week study duration in relation to their IBS symptoms. The SGA question is asked weekly as follows: “In the past 7 days, have you had adequate relief of your IBS symptoms?” (Yes/No.) It is discovered that Subjects in the treatment group taking oral rifaximin respond “Yes” more often than Subjects who are not taking oral rifaximin. Another measure of efficacy is based on subjects' answers to the Weekly Subject Global Assessment (SGA) question over the 4 week study duration in relation to their IBS symptom of bloating. The SGA question is asked weekly as follows: “In the past 7 days, have you had adequate relief of your IBS symptom of bloating?” (Yes/No). […]"}
{"smiles": "COC1/C=C/OC2(C)Oc3c(C)c(O)c4c(O)c(c5c(nc6cc(C)ccn65)c4c3C2=O)NC(=O)/C(C)=C\\C=C\\C(C)C(O)C(C)C(O)C(C)C(OC(C)=O)C1C", "note": "[RFX, (2S,16Z,18E,20S,21S,22R,23R,24R,25S,26S,27S,28E)-5,6,21,23,25 Pentahydroxy-27-methoxy-2,4,11,16,20,22,24,26-octamethyl-2,7-(epoxypentadeca-(1,11,13)trienimino)benzofuro(4,5-e)pyrido(1,2,-a)benzimidazole-1,15(2H)-dione,25-acetate]", "values": [{"measurement": "\"Yes\" responses to weekly SGA question on adequate relief of IBS symptom of bloating versus subjects not taking rifaximin", "result": "more often"}, {"measurement": "\"Yes\" responses to weekly SGA question on adequate relief of IBS symptoms versus subjects not taking rifaximin", "result": "more often"}]}
